Among the data in patent US5708063A, “Photochromic compound” (Tokuyama Corporation, priority 1993, dated 1998) are λmax, Initial color density and T1/2 values, retold here.

Data set [1] can be described thus: Durability of poly(allyl diglycol carbonate) lens impregnated with the compound in silicone oil, as in Example 9 (Example 10). The data set is classed as physicochemical. Details: Initial color density: unit not given here. To be noted: silicone oil impregnation; for Initial color density: 1.0×10^-4 mole/g; for T1/2: xenon fadeometer. The method, then: (§1) T1/2 is defined as the time required for the color density to decrease to half of its initial value when the film is exposed to the fadeometer.
The solution was impregnated in the surface of a lens composed of poly(allyl diglycol carbonate) at 200° C. for 1 hour. The concentration of the solution was adjusted to 1.0×10^-4 mole/g.

Data set [2] is described as follows: Photochromic PMMA cast film: initial coloration density, maximum absorption wavelength and fatigue life in xenon fadeometer (Example 9).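 On Initial color density: initial color density is an absorbance value so the % unit is wrong.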 The following applies: PMMA cast film 0.1 mm; for λmax / Initial color density: xenon light; for Initial color density / T1/2: no stabilizer; for T1/2: time for color density to fall to half of initial value, xenon fadeometer. It counts as physicochemical.
From the text: The thickness of the cast film was adjusted to 0.1 mm.
as §1

In data set [1], `O=C1C2=C(C3CC3)c3cc(Br)sc3C3(C4CCCC3CCC4)C2C(=O)N1CCc1ccc2ccccc2c1` (stereo not drawn) [(3), 2-bromo-4-cyclopropyl-6,7-dihydrido-N-(β-naphtylethyl)spirobenzo[5,6-b]thiophenedicarboxyimido-7'9'-bicyclo[3.3.1]nonane] showed a λmax of 550 nm, an Initial color density of 0.81 and a T1/2 of 49 h. Further, in data set [2], the λmax turned out to be 545 nm, the Initial color density is on record as 0.88% and the T1/2 came out at 45 h.
In data set [1], `Cc1cc2c(s1)C1(C3CCC1CC3)C1C(=O)N(C[N+](=O)[O-])C(=O)C1=C2C1CC1` (centres unmarked) [(8)] showed a λmax of 578 nm, an Initial color density of 0.63 and a T1/2 of 80 h. In data set [2], this molecule had a λmax of 571 nm, an Initial color density of 0.69% and a T1/2 of 75 h.
For the molecule `CNC(=O)CN1C(=O)C2=C(C3CC3C(F)(F)F)c3cc([N+](=O)[O-])sc3C3(C4CCC3CC4)C2C1=O` (centres unmarked) [(11)], in data set [2], the λmax was found to be 530 nm, the Initial color density is 0.75% and the T1/2 was found to be 65 h.
Consider `COC12CCC(CC1)C21c2oc3ccccc3c2C(C2CC2(Br)Br)=C2C(=O)N(CC(=O)OC(C)(C)CCC#N)C(=O)C21` (centres unmarked) [(13)], for which, in data set [2], the λmax is recorded as 495 nm, the Initial color density turned out to be 0.69% and the T1/2 came out at 47 h.
On to `N#CCOCN1C(=O)C2=C(C3CC3c3ccccc3)c3sccc3C3(C2C1=O)C1(Cl)CCC3(Cl)CC1` (centres unmarked) [(14)], for which, in data set [2], the λmax came out at 552 nm, the Initial color density stood at 0.58% and the T1/2 came to 69 h.
For `COCCOCN1C(=O)C2=C(C3(F)C(F)(F)C3(F)F)c3c(oc4ccccc34)C3(C2C1=O)C1(F)CCC3(F)CC1` (centres unmarked) [(16)], in that order: 498 nm, 0.82% and 91 h.
In data set [2], `COc1cc(OC)c2c(c1)C(C1C(C)(C)C1(C)C)=C1C(=O)N(Cc3ccc4ccccc4c3)C(=O)C1C21C2CCC1CC2` (centres unmarked) [(18)] returned a λmax of 603 nm, an Initial color density of 0.62% and a T1/2 of 61 h.
Take `COC1CC1C1=C2C(=O)N(Cc3ccc4ccccc4c3)C(=O)C2C2(c3c1sc1ccccc31)C1CCC2CC1` (centres unmarked) [(19)]: in data set [2], the λmax was 524 nm, the Initial color density came to 0.58% and the T1/2 stood at 81 h.
In data set [1], `COC(=O)CN1C(=O)C2=C(C3CC3)c3ccoc3C3(C4CCC3CC4)C2C1=O` (centres unmarked) [(20)] returned a λmax of 535 nm, an Initial color density of 0.73 and a T1/2 of 95 h. In data set [2], this molecule had a λmax of 531 nm, an Initial color density of 0.82% and a T1/2 of 89 h.
Regarding `N#CCN1C(=O)C2=C(C3CC3Oc3ccccc3)c3ccoc3C3(C4CCC3CC4)C2C1=O` (centres unmarked) [(22)], in data set [1], the λmax was 559 nm, the Initial color density was 0.70 and the T1/2 is 93 h. In data set [2], this molecule had a λmax of 554 nm, an Initial color density of 0.81% and a T1/2 of 88 h.
As for `CC(C)COC(=O)CN1C(=O)C2=C(C3C(CCl)C3CCl)c3cc(Br)sc3C3(C4CCCC3CCC4)C2C1=O` (centres unmarked) [(23)], in data set [2], the λmax is given as 539 nm, the Initial color density is given as 0.87% and the T1/2 came out at 53 h.
In data set [1], `CCC(C#N)N1C(=O)C2=C(C3CC3[N+](=O)[O-])c3c(sc4c3CCCC4)C3(C4CCCC3(C)CCC4)C2C1=O` (centres unmarked) [(25)] gave a λmax of 565 nm, an Initial color density of 0.65 and a T1/2 of 79 h. In data set [2], this molecule returned a λmax of 562 nm, an Initial color density of 0.71% and a T1/2 of 76 h.
In data set [2], `COC(=O)C(C)N1C(=O)C2=C(C3CC3OC(C)(C)C)c3cc(Cl)oc3C3(C4CCCC3(C)CC(C)(C)C4)C2C1=O` (centres unmarked) [(26)] came in with a λmax of 546 nm, an Initial color density of 0.78% and a T1/2 of 72 h.
For `CCCCC1CC2CCCC(C1)C21c2sc(C)c(CC)c2C(C2C(I)C2I)=C2C(=O)N(CC3CCCCC3C#N)C(=O)C21` (centres unmarked) [(27)] the same measures were 553 nm, 0.68% and 51 h.
In data set [2], `COC12CCCC(CCC1)C21c2c(Cl)csc2C(C2CC2CCc2ccccc2)=C2C(=O)N(CC(=O)NCCBr)C(=O)C21` (centres unmarked) [(28)] came in with a λmax of 526 nm, an Initial color density of 0.56% and a T1/2 of 54 h.
In data set [2], `COc1cc(OC)c2c(c1)C(C1CC1O)=C1C(=O)N(C3CCC([N+](=O)[O-])CC3)C(=O)C1C21C2CCCC1(Cl)CCC2` (centres unmarked) [(29)] gave a λmax of 588 nm, an Initial color density of 0.52% and a T1/2 of 62 h.
In the case of `CCOC(=O)OCN1C(=O)C2=C(C3C(c4ccccc4)C3c3ccccc3)c3cc(-c4ccc(OC)cc4)sc3C3(C4CCCC3CCC4)C2C1=O` (centres unmarked) [(31)], in data set [1], the λmax is recorded as 616 nm, the Initial color density is 0.69 and the T1/2 was 86 h. In data set [2], this molecule had a λmax of 624 nm, an Initial color density of 0.77% and a T1/2 of 81 h.
In data set [1], `O=C1C2=C(C3CC3)c3sc4c(c3C3(C5CCCC3CCC5)C2C(=O)N1CCc1cccc2ccccc12)CCCC4` (centres unmarked) [(33)] came in with a λmax of 525 nm, an Initial color density of 0.49 and a T1/2 of 80 h. In data set [2], this molecule came in with a λmax of 519 nm, an Initial color density of 0.56% and a T1/2 of 7.8 h.
In data set [2], `CCSC1CC1C1=C2C(=O)N(C(CC)COC(=O)OC[N+](=O)[O-])C(=O)C2C2(c3scc([N+](=O)[O-])c31)C1CC3CC2CC(C)(C3)C1` (centres unmarked) [(37)] registered a λmax of 540 nm, an Initial color density of 0.77% and a T1/2 of 75 h.
With `Cn1c2c(c3ccccc31)C1(C3CC4CC(C3)CC1C4)C1C(=O)N(CC(C)(C)CCOC(=O)CBr)C(=O)C1=C2C1CC1CCCc1ccccc1` (centres unmarked) [(38)], in data set [2], the λmax worked out at 592 nm, the Initial color density is given as 0.61% and the T1/2 worked out at 68 h.
As for `COc1cc2c(c(OC)c1OC)C1(C3CC4CC1CC(OC)(C4)C3)C1C(=O)N(CC(=O)NCCBr)C(=O)C1=C2C1CC1C(Cl)(Cl)Cl` (centres unmarked) [(39)], in data set [2], the λmax turned out to be 527 nm, the Initial color density is recorded as 0.58% and the T1/2 was determined as 65 h.
Turning to `CCOC(=O)C12CC3CC(C1)C1(c4c([N+](=O)[O-])csc4C(C4CC4Br)=C4C(=O)N(CC(F)(F)F)C(=O)C41)C(C(=O)OCC)(C3)C2` (centres unmarked) [(43)], in data set [2], the λmax is 509 nm, the Initial color density stood at 0.62% and the T1/2 was 72 h.
In the case of `CN(C)c1ccc2cc(CCCN3C(=O)C4=C(C5CC5)c5c([N+](=O)[O-])csc5C5(C6CC7CC(C6)CC5C7)C4C3=O)ccc2c1` (centres unmarked) [(47)], in data set [2], the λmax amounted to 529 nm, the Initial color density was 0.72% and the T1/2 was found to be 52 h.
In data set [2], `O=C1OC(=O)C2C1=C(C1CC1)c1c(oc3ccccc13)C21C2CCC1CC2` (centres unmarked) [(52)] returned a λmax of 534 nm, an Initial color density of 1.21% and a T1/2 of 54 h.
In data set [2], `Cc1cc2c(s1)C1(C3CC4CC(Cl)(C3)CC1(Cl)C4)C1C(=O)OC(=O)C1=C2C1CC1` (centres unmarked) [(58)] gave a λmax of 554 nm, an Initial color density of 1.24% and a T1/2 of 48 h.
As to `CCC(C(=O)OCCc1ccc2ccccc2c1)N1C(=O)C2=C(C)c3ccsc3C3(C4CC5CC(C4)CC3C5)C2C1=O` (centres unmarked) [(A), reference compound], in data set [2], the λmax is recorded as 520 nm, the Initial color density is recorded as 0.51% and the T1/2 amounted to 24 h.
As to `CC1=C2C(=O)N(CCCCC(=O)OCCc3ccc4ccccc4c3)C(=O)C2C2(c3sccc31)C1CC3CC(C1)CC2C3` (centres unmarked) [(B), reference compound], in data set [2], the λmax was 538 nm, the Initial color density is given as 0.49% and the T1/2 stood at 16 h.
In data set [2], `CC1=C2C(=O)N(C[N+](=O)[O-])C(=O)C2C2(c3sc(C)cc31)C1CCC2CC1` (centres unmarked) [(C), reference compound] yielded a λmax of 556 nm, an Initial color density of 0.72% and a T1/2 of 80 h.
For `CC1=C2C(=O)N(CC#N)C(=O)C2C2(c3occc31)C1CCC2CC1` (centres unmarked) [(D), reference compound] the same measures were 535 nm, 0.90% and 48 h.
In data set [2], `CC1=C2C(=O)N(CCCc3ccc4cc(N(C)C)ccc4c3)C(=O)C2C2(c3scc([N+](=O)[O-])c31)C1CC3CC(C1)CC2C3` (centres unmarked) [(E), reference compound] came in with a λmax of 535 nm and a T1/2 of 14 h.
For `CC1=C2C(=O)N(CCc3cccc4ccccc34)C(=O)C2C2(c3c1sc1c3CCCC1)C1CCCC2CCC1` (centres unmarked) [(F), reference compound], in data set [2], the λmax stood at 508 nm, the Initial color density is given as 0.47% and the T1/2 was determined as 13 h.
In data set [2], `CC1=C2C(=O)OC(=O)C2C2(c3sc4c(c31)CCCC4)C1CCCC2CCC1` (centres unmarked) [(G), reference compound] displayed a λmax of 585 nm, an Initial color density of 0.71% and a T1/2 of 10 h.
